In patent publication US20090326037A1 (priority 2005, published 2009):
Where “and” joins values, the source holds several entries; their conditions need not be identical. Identical values can stand only once. Like-named read-outs stand apart in the source and are kept apart here.

How the values were obtained:
[1] = Toxicity (lethal effect, LD50) in rats; assay type: in vivo
Method: (§1) Determination of toxicity of 1-methyl-2-phenylthiomethyl-3-carbethoxy-5-oxy-6-bromindol sulfon as compared with arbidol.
(§2) The administration of the preparations was carried out endogastrically, the period of observation of the animals was 14 days.

[2] = Toxicity (lethal effect, LD50) in mice; assay type: in vivo
Method: as §1, §2

[3] = system: influenza virus A/PR/8/34; assay type: cell-based; settings: influenza virus A/PR/8/34, MDCK cells; concentration not given
[4] = system: influenza virus H3N2; assay type: in vivo, mice
[5] = system: influenza A/Singapore/1/57 virus; experiment: microbe, parasite or virus in culture; assay type: cell-based; settings: for Percent of inhibition of OD 490: added 2 hours after infection
[6] = system: avian influenza virus (H5N1); assay type: in vivo, white mice; settings: Oseltamivir 2.5 mg/kg alone (Arbidol 0 mg/kg), orally
[7] = Dose 100 mg/kg, endogastrically, observation 14 days
[8] = Dose 250 mg/kg, endogastrically, observation 14 days
[9] = Dose 500 mg/kg, endogastrically, observation 14 days
[10] = Dose 1000 mg/kg, endogastrically, observation 14 days
[11] = Dose 3000 mg/kg, endogastrically, observation 14 days
[12] = Dose 5000 mg/kg, endogastrically, observation 14 days
[13] = Dose 7500 mg/kg, endogastrically, observation 14 days

Compound: CCOC(=O)c1c(CS(=O)(=O)c2ccccc2)n(C)c2cc(Br)c(O)cc12 [Sulfon, 1-methyl-2-phenylthiomethyl-3-carbethoxy-5-oxy-6-bromindol sulfon]
- Lethal effect upon administration to rats [1, 7]: 0/6
- Lethal effect upon administration to rats [1, 8]: 0/6
- Lethal effect upon administration to rats [1, 9]: 0/6
- Lethal effect upon administration to rats [1, 10]: 0/6
- Lethal effect upon administration to rats [1, 11]: 2/6
- Lethal effect upon administration to rats [1, 12]: 4/6
- Lethal effect upon administration to rats [1, 13]: 6/6
- LD50 at 14 days ([1]; rat, in vivo, oral, rats, endogastrically, observation 14 days): 5350 ± 250 mg/kg
- LD50 relative to arbidol ([1]; rats, sulfon LD50 versus arbidol LD50): 3 times
- Lethal effect upon administration to mice [2, 7]: 0/6
- Lethal effect upon administration to mice [2, 8]: 0/6
- Lethal effect upon administration to mice [2, 9]: 0/6
- Lethal effect upon administration to mice [2, 10]: 0/6
- Lethal effect upon administration to mice [2, 11]: 2/6
- Lethal effect upon administration to mice [2, 12]: 4/6
- Lethal effect upon administration to mice [2, 13]: 6/6
- toxicity as compared with arbidol ([2]; Table 5 (mice and rats), endogastrically): significantly less toxic than arbidol
- LD50 relative to arbidol ([2]; mice, sulfon LD50 versus arbidol LD50): 4 times
- LD50 at 14 days ([2]; mouse, in vivo, oral, mice, endogastrically, observation 14 days): 3600 ± 180 mg/kg
- Percent of suppression of virus reproduction [3]: 75%
- Percent of surviving mice ([4]; Concentration 15): 90%
- Percent of surviving mice ([4]; Concentration 30): 70%
- Percent of surviving mice ([4]; Concentration 100): 40% and 50% and 60%
- antiviral action in vivo as compared with arbidol ([4]; mouse, in vivo): comparable with the action of arbidol

Compound: CCOC(=O)C1=C[C@@H](OC(CC)CC)[C@H](NC(C)=O)[C@@H](N)C1 [Oseltamivir]
- Percent of inhibition of OD 490 ([5]; Oseltamivir 0.4 μg alone (A or C 0 μg/ml), two values: A series, C series): 36% and 18%
- Percent of inhibition of OD 490 ([5]; Oseltamivir 4.1 μg alone (A or C 0 μg/ml), two values: A series, C series): 37% and 20%
- Percent of inhibition of OD 490 ([5]; Oseltamivir 12.3 μg alone (A or C 0 μg/ml), two values: A series, C series): 48% and 34%
- Percent of inhibition of OD 490 ([5]; Oseltamivir 41 μg alone (A or C 0 μg/ml), two values: A series, C series): 52% and 36%
- suppression of reproduction ([5]; ten times greater amount (than 3.3 mg) of zanamivir or oseltamivir without the addition of arbidol): 50%
- Surviving mice, % [6]: 60%

Compound: 1-methyl-2-(4-methylphenylsulfomethyl-3-carbethoxy-4-dimethylaminomethyl-5-oxy-6-bromindol
- Percent of inhibition of OD 490 ([5]; A or B 0.3 μg/ml + Zanamivir 0.3 μg): 10%
- Percent of inhibition of OD 490 ([5]; A or B 0.3 μg/ml + Zanamivir 1 μg): 15%
- Percent of inhibition of OD 490 ([5]; A or B 0.3 μg/ml + Zanamivir 3.3 μg): 21%
- Percent of inhibition of OD 490 ([5]; A or B 0.3 μg/ml + Zanamivir 10 μg): 30%
- Percent of inhibition of OD 490 ([5]; A or B 0.3 μg/ml + Zanamivir 33 μg): 40%
- Percent of inhibition of OD 490 ([5]; A or B 0.3 μg/ml alone (Zanamivir 0)): no
- Percent of inhibition of OD 490 ([5]; A or B 1 μg/ml + Zanamivir 0.3 μg): 21%
- Percent of inhibition of OD 490 ([5]; A or B 1 μg/ml + Zanamivir 1 μg): 26%
- Percent of inhibition of OD 490 ([5]; A or B 1 μg/ml + Zanamivir 3.3 μg): 30%
- Percent of inhibition of OD 490 ([5]; A or B 1 μg/ml + Zanamivir 10 μg): 85%
- Percent of inhibition of OD 490 ([5]; A or B 1 μg/ml + Zanamivir 33 μg): 83%
- Percent of inhibition of OD 490 ([5]; A or B 1 μg/ml alone (Zanamivir 0)): no
- Percent of inhibition of OD 490 ([5]; A or B 3 μg/ml + Zanamivir 0.3 μg): 40%
- Percent of inhibition of OD 490 ([5]; A or B 3 μg/ml + Zanamivir 1 μg): 45%
- Percent of inhibition of OD 490 ([5]; A or B 3 μg/ml + Zanamivir 3.3 μg): 80%
- Percent of inhibition of OD 490 ([5]; A or B 3 μg/ml + Zanamivir 10 μg): 90%
- Percent of inhibition of OD 490 ([5]; A or B 3 μg/ml + Zanamivir 33 μg): 87%
- Percent of inhibition of OD 490 ([5]; A or B 3 μg/ml alone (Zanamivir 0)): no
- Percent of inhibition of OD 490 ([5]; A or B 5 μg/ml + Zanamivir 0.3 μg): 52%
- Percent of inhibition of OD 490 ([5]; A or B 5 μg/ml + Zanamivir 1 μg): 80%
- Percent of inhibition of OD 490 ([5]; A or B 5 μg/ml + Zanamivir 3.3 μg): 75%
- Percent of inhibition of OD 490 ([5]; A or B 5 μg/ml + Zanamivir 10 μg): 96%
- Percent of inhibition of OD 490 ([5]; A or B 5 μg/ml + Zanamivir 33 μg): 95%
- Percent of inhibition of OD 490 ([5]; A or B 5 μg/ml alone (Zanamivir 0)): no
- Percent of inhibition of OD 490 ([5]; A or B 10 μg/ml + Zanamivir 0.3 μg): 50%
- Percent of inhibition of OD 490 ([5]; A or B 10 μg/ml + Zanamivir 1 μg): 75%
- Percent of inhibition of OD 490 ([5]; A or B 10 μg/ml + Zanamivir 3.3 μg): 90%
- Percent of inhibition of OD 490 ([5]; A or B 10 μg/ml + Zanamivir 10 μg): 100, 100%
- Percent of inhibition of OD 490 ([5]; A or B 10 μg/ml + Zanamivir 33 μg): 100, 100%
- Percent of inhibition of OD 490 ([5]; A or B 10 μg/ml alone (Zanamivir 0)): 10%
